Data reported in patent publication US9676997B2, “Compositions and methods for stabilizing luminogenic substrates” (Promega Corporation, priority 2014, dated 2017).

Assays:
[1] = Stability of 1.25 mM coelenterazine-h in 50% ethanol and 50% propylene glycol with or without 225 mM ATT, HPLC and Arrhenius plots; format: physicochemical; conditions: 225 mM ATT, over time at different temperatures
Procedure: The stability of coelenterazine-h in the presence and absence of ATT was measured over time at different temperatures. Specifically, 1.25 mM coelenterazine-h was present in a solution of 50% ethanol and 50% propylene glycol (i.e., the solution without ATT) or a solution of 50% ethanol and 50% propylene glycol with 225 mM ATT (i.e., the solution with ATT). These two solutions were incubated at −20° C., room temperature (RT), 40° C., or 60° C. and analyzed at for 0 days, 1 day, 3 days, 7 days, 15 days, and 30 days.
Following incubation, high performance liquid chromatography (HPLC) was utilized to identify the components of the respective solutions at each time point. Specifically, an Agilent 1100 HPLC instrument was used and equipped with a quaternary pump, thermostatted autosampler and column compartment, and a G1311B diode-array detector. The column used was a Synergi-MAX-RP (Phenomenex, Torrance, Calif.) 100 AÅ 50×4.6 2.5 μm. The run on the HPLC was a gradient run with 0.1% TFA in water and acetonitrile. Absorbance was measured at 262 nanometers (nm). Standards of coelenterazine-h and its known degradants were run to confirm both the retention time and absorbance trace. 5 μl of each solution was injected and the retention time of coelenterazine-h was 4.7 minutes at room temperature.
The results of the HPLC analysis are shown below in Tables 4 and 5 and FIGS. 2A and 2B, in which the values are reported as relative peak area percentage at 262 nm (i.e., the lamba max of the substrate). […] In each of FIGS. 2A and 2B, diamond is 1.25 mM coelenterazine-h incubated over time with or without 225 mM ATT, respectively, at −20° C., triangle is 1.25 mM coelenterazine-h incubated over time with or without 225 mM ATT, respectively, at room temperature (RT), star is 1.25 mM coelenterazine-h incubated over time with or without 225 mM ATT, respectively, at 40° C., and cross is 1.25 mM coelenterazine-h incubated over time with or without 225 mM ATT, respectively, at 60° C.
From the HPLC analysis, the half-life of coelenterazine-h in the presence of ATT at 40° C. and 60° C. was calculated to be 20 days and 5 days, respectively, while the half-life of coelenterazine-h in the absence of ATT at 20° C., 40° C. and 60° C. was calculated to be 24 days, 7.5 days and 2 days, respectively (see Table 6 below).
Additionally, Arrhenius plots were generated for coelenterazine-h in the presence and absence of ATT to calculate the half-life of coelenterazine-h at various temperatures. The Arrhenius equation is as follows: […]
In FIG. 9, the slope was −8131.2, the intercept was 22.6157, and R^2 was 0.9994.
In FIG. 10, the slope was −7310.53, the intercept was 21.4386, and R^2 was 0.9964.

[2] = Stability of furimazine at 37° C. in different organic solvents with or without ATT, luminescence with NANOLUC luciferase; format: physicochemical; conditions: 50% PG:50% ethanol, 60% PG:40% ethanol, 15% glycerol:85% ethanol, 250 or 300 mM ATT vs no ATT
Procedure: To further examine the stabilization of furimazine at 37° C., luminescence was measured after furimazine was incubated in the presence of different organic solvents, namely 50% (v/v) propylene glycol (PG):50% (v/v) ethanol, 60% (v/v) propylene glycol (PG):40% (v/v) ethanol, and 15% (v/v) glycerol:85% (v/v) ethanol.
1.25 mM stocks of furimazine were prepared in the following solutions: a) 50% propylene glycol:50% ethanol, 1.25 mM furimazine, 250 mM ATT; b) 60% propylene glycol:40% ethanol, 1.25 mM furimazine, 300 mM ATT; c) 15% glycerol:85% ethanol, 1.25 mM furimazine, 250 mM ATT; and inventory furimazine (Promega Corporation). Furimazine was first dissolved and then ATT was added. To make 4 mL of each sample, 2 mg furimazine and 143 mg of ATT (250 mM ATT) was added. For 300 mM ATT, 171 mg of ATT was added.
A portion of these samples was aliquoted into amber Starstead tubes with O-rings and then placed at 37° C. […] The remaining sample was placed at −20° C. in a 15 mL tube and monitored for precipitate formation.
Prior to assaying the samples, they were heated to room temperature (RT) and vortexed to ensure that any material that fell out of solution was re-suspended. […] The resulting dilutions were incubated for 3 minutes at RT, and luminescence was detected on a luminometer (GLOMAX Multi plus luminometer, Promega Corporation). […]

Row | Structure (SMILES) | stabilization of coelenterazine-h against decomposition [1] | stability of furimazine (normalized RLUs over time) [2]
1 | Cc1n[nH]c(=S)[nH]c1=O [ATT, 6-methyl-3-thioxo-3,4-dihydro-1,2,4-triazin-5(2H)-one] | stabilized coelenterazine-h against decomposition over time at different temperatures | 
2 | O=c1c(Cc2ccco2)nc2c(Cc3ccccc3)[nH]c(-c3ccccc3)cn1-2 [Furimazine, furimazine] |  | more stable in the presence of ATT than in the absence of ATT for each organic solvent
